One experiment addresses human AT2R fused to Cb23 (Homo sapiens, UniProt P50052). The experiment is described as follows: Radioligand binding assay, displacement of 125I-[Sar1, Ile8]-Angiotensin II, hAT2R Cb23. The settings on record: displacement of 125I-[Sar1, Ile8]-Angiotensin II, human AT2R fused to Cb23, HEK-293 cell membrane preparations; read-out: Binding affinity on hAT2R_Cb23 IC50. Put shortly:
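Membranes from HEK-293 cells expressing human AT2R fused to Cb23 were incubated with 0.05 nM 125I-[Sar1, Ile8]-Angiotensin II in 100 μL buffer (50 mM Tris, 5 mM MgCl2, 1 mM EDTA, 0.1% BSA, pH 7.4) for one hour at 25° C. Ligands were tested as eight-point dose-response curves in duplicate, with C21 and Angiotensin II as references.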
On the technique in general: Displacement assays read how much labelled ligand stays bound in the presence of the test substance.

For the next experiment, the target named is human AT1R (Homo sapiens (Human), UniProt P30556). The experiment is described as follows: Counterscreen radioligand binding assay, displacement of 125I-[Sar1, Ile8]-Angiotensin II, hAT1R WT. Conditions: for inhibition at 1 µM / inhibition at 10 µM: 125I-[Sar1, Ile8]-Ang II, semi-quantitative score; for inhibition at 1 µM: compound at 1 μM, read-out: % Displaced radioligand at 1 μM; for inhibition at 10 µM: compound at 10 μM, read-out: % Displaced radioligand at 10 μM; for IC50: HEK-293 cell membranes, read-out: Binding affinity On hAT1R IC50. Put shortly:
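Compounds displaced 0.05 nM 125I-[Sar1, Ile8]-Ang II from human AT1R in HEK-293 membranes (1 h, 25° C; Tris/MgCl2/EDTA/BSA buffer, pH 7.4). Readout was filtration and scintillation counting, with non-specific binding set by 10 μM [Sar1]-Ang II. Values are % displacement at 1 μM and […], or IC50 from eight-point four-parameter fits.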

Where only a bound is given, the exact number is not on record here.

human AT2R fused to Cb23, sequence (P50052 whole entry, looked up, the tested form may be a part): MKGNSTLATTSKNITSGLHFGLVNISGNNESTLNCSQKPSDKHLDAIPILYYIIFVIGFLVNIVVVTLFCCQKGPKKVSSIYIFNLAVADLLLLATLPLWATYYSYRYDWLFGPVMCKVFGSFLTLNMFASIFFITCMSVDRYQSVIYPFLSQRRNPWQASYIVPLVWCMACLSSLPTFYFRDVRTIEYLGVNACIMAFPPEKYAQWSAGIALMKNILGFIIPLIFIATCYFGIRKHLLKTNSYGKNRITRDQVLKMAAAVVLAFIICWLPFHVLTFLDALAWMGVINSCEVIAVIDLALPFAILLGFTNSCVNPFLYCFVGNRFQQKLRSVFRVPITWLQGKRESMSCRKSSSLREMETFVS
human AT1R, sequence (P30556 whole entry): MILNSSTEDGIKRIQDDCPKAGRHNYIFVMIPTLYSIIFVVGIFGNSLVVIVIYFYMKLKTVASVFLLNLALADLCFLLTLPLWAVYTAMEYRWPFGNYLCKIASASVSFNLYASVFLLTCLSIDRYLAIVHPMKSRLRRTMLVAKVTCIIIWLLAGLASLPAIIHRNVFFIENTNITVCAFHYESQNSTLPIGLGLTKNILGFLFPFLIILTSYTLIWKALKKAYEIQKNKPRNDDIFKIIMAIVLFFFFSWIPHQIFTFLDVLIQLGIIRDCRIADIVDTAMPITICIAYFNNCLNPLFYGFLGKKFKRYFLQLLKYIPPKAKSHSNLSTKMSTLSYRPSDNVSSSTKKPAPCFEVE

One may read the IC50 as the midpoint of a concentration-inhibition curve. For `CC(C)Nc1ccc(-c2nn[nH]n2)c(N2CCN(Cc3nc4ccccc4s3)CC2)c1` [Compound A-60, 3-[4-(1,3-benzothiazol-2-ylmethyl)piperazin-1-yl]-N-isopropyl-4-(2H-tetrazol-5-yl)aniline], the concentration for half-maximal inhibition (IC50) at human AT2R fused to Cb23 was 3.46 µM. Besides, at human AT1R, the inhibition at 1 µM is less than 30% and the inhibition at 10 µM was less than 30%.
For `c1ccc2sc(CN3CCN(c4cc(NC5CCCC5)ccc4-c4nn[nH]n4)CC3)nc2c1` [Compound A-64, 3-[4-(1,3-benzothi-azol-2-ylmethyl)-piperazin-1-yl]-N-cyclopentyl-4-(2H-tetrazol-5-yl)aniline], at human AT2R fused to Cb23, the IC50 was found to be 1.56 µM. On human AT1R, the inhibition at 1 µM is less than 30%, the inhibition at 10 µM is less than 30% and the 50% inhibitory concentration (IC50) is 39.7 µM.
On to `c1ccc2sc(CN3CCN(c4cc(N5CCCCC5)ccc4-c4nn[nH]n4)CC3)nc2c1` [Compound A-65, 2-((4-(5-(piperidin-1-yl)-2-(2H-tetrazol-5-yl)phenyl)piperazin-1-yl)methyl) benzo[d]thiazole], for which the concentration for half-maximal inhibition (IC50) at human AT2R fused to Cb23 stood at 1.85 µM. At human AT1R, the inhibition at 1 µM is less than 30%, the inhibition at 10 µM was less than 30% and the 50% inhibitory concentration (IC50) was 60.8 µM.
`c1ccc2sc(CN3CCN(c4cc(N5CCOCC5)ccc4-c4nn[nH]n4)CC3)nc2c1` [Compound A-67, 4-[3-[4-(1,3-benzo-thiazol-2-ylmethyl)-piperazin-1-yl]-4-(2H-tetrazol-5-yl)-phenyl]morpholine]: at human AT2R fused to Cb23, the 50% inhibitory concentration (IC50) was found to be 7.11 µM. On human AT1R, the inhibition at 1 µM was less than 30% and the inhibition at 10 µM was less than 30%.
Regarding `COC1CC(Nc2ccc(-c3nn[nH]n3)c(N3CCN(Cc4nc5ccccc5s4)CC3)c2)C1` (stereo not drawn) [Compound A-68, 3-[4-(1,3-benzo-thiazol-2-ylmethyl)-piperazin-1-yl]-N-(3-methoxycyclo-butyl)-4-(2H-tetrazol-5-yl)aniline], the IC50 on human AT2R fused to Cb23 turned out to be 8.5 µM. For the same compound, on human AT1R, the inhibition at 1 µM is less than 30% and the inhibition at 10 µM was less than 30%.
As to `CC(C)Cc1ccc(-c2nn[nH]n2)c(N2CCN(Cc3nc(=O)c4cnn(C)c4[nH]3)CC2)c1` [Compound A-69, 6-[[4-[5-isobutyl-2-(2H-tetrazol-5-yl)-phenyl]piperazin-1-yl]methyl]-1-methyl-7H-pyr-azolo[3,4-d]pyrimi-din-4-one], the 50% inhibitory concentration (IC50) at human AT2R fused to Cb23 is 10.6 µM. At human AT1R, the inhibition at 1 µM was less than 30% and the inhibition at 10 µM was less than 30%.
Turning to `Cc1ccc2nc(CN3CCN(c4cc(CC(C)C)ccc4-c4nn[nH]n4)CC3)cc(=O)n2c1` [Compound A-70, 2-[[4-[5-isobutyl-2-(2H-tetrazol-5-yl)-phenyl]piperazin-1-yl]methyl]-7-methyl-pyrido[1,2-a]pyrimidin-4-one], the half-inhibitory concentration (IC50) on human AT2R fused to Cb23 was determined as 1.8 µM. Further, at human AT1R, the inhibition at 1 µM is less than 30%, the inhibition at 10 µM is less than 30% and the IC50 stood at 61.2 µM.
Take `Cc1ccn2c(=O)cc(CN3CCN(c4cc(CC(C)C)ccc4-c4nn[nH]n4)CC3)nc2c1` [Compound A-72, 2-[[4-[5-isobutyl-2-(2H-tetrazol-5-yl)phenyl]piperazin-1-yl]methyl]-8-methyl-pyrido[1,2-a]pyrimidin-4-one]: the 50% inhibitory concentration (IC50) on human AT2R fused to Cb23 was found to be 8.39 µM. Further, on human AT1R, the inhibition at 1 µM is less than 30% and the inhibition at 10 µM was less than 30%.
As to `Cc1cccc2nc(CN3CCN(c4cc(CC(C)C)ccc4-c4nn[nH]n4)CC3)cc(=O)n12` [Compound A-73, 2-[[4-[5-isobutyl-2-(2H-tetrazol-5-yl)-phenyl]piperazin-1-yl]methyl]-6-methyl-pyrido[1,2-a]pyrimidin-4-one-], the 50% inhibitory concentration (IC50) at human AT2R fused to Cb23 came to 4.3 µM. At human AT1R, the inhibition at 1 µM was less than 30% and the inhibition at 10 µM is less than 30%.
For `Cc1csc2nc(CN3CCN(c4cc(CC(C)C)ccc4-c4nn[nH]n4)CC3)cc(=O)n12` [Compound A-75, 7-[[4-[5-isobutyl-2-(2H-tetrazol-5-yl)phenyl]piperazin-1-yl]methyl]-3-methyl-thiazolo[3,2-a]pyrimidin-5-one], the half-inhibitory concentration (IC50) on human AT2R fused to Cb23 came out at 5.92 µM. Moreover, on human AT1R, the inhibition at 1 µM is less than 30% and the inhibition at 10 µM is less than 30%.

The values above are taken from patent US20240368133A1, “Compounds for the Treatment of Pain, in Particular, Neuropathic Pain, and/or Other Diseases or Disorders that are Associated with AT2R and/or AT2R Mediated Signaling” (Confo Therapeutics N.V., priority 2021, published 2024).
